# PMC12077191, “Aeromonas hydrophila RTX adhesin has three ligand-binding domains that give the bacterium the potential to adhere to and aggregate a wide variety of cell types” (mBio, 2025)
# Columns and labels:
# [1] = biological target: T1, AhLap RTX adhesin, carbohydrate-binding module (AhLapCBM3) (Aeromonas hydrophila, UniProt A0KNW4); assay: isothermal titration calorimetry at […] °C; also glycan array; parameters: gene AHA_3491; AhLapCBM3, three-domain construct Asn3455 to Gly3940 (extender domain, split domain and CBM), His-tagged
# [2] = biological target: T1, AhLap RTX adhesin, carbohydrate-binding module (AhLapCBM3); assay: isothermal titration calorimetry at […] °C; […] also blocks binding to cells; parameters: gene AHA_3491; AhLapCBM3, three-domain construct Asn3455 to Gly3940 (extender domain, split domain and CBM), His-tagged
# [3] = biological target: T1, AhLap RTX adhesin, carbohydrate-binding module (AhLapCBM3); assay: printed mammalian glycan array (CFG v5.[…]), GFP fluorescence; parameters: gene AHA_3491; GFP-tagged AhLapCBM3 (Asn3455 to Gly3940)
compound,measurement,setting,value
CC(=O)N[C@@H]1[C@@H](O[C@@H]2O[C@H](CO)[C@H](O)[C@H](O)[C@H]2O[C@@H]2O[C@@H](C)[C@@H](O)[C@@H](O)[C@@H]2O)[C@H](O[C@@H]2O[C@@H](C)[C@@H](O)[C@@H](O)[C@@H]2O)[C@@H](CO)O[C@H]1O [Lewis B antigen],Kd,[1],20.8 µM
C[C@@H]1OC(O)[C@@H](O)[C@H](O)[C@@H]1O (stereo partly drawn) [L-fucose],Kd,[2],~386 µM
CC(=O)N[C@H]1C(O)O[C@H](CO)[C@@H](O[C@@H]2O[C@H](CO)[C@H](O)[C@H](O)[C@H]2O[C@@H]2O[C@@H](C)[C@@H](O)[C@@H](O)[C@@H]2O)[C@@H]1O[C@@H]1O[C@@H](C)[C@@H](O)[C@@H](O)[C@@H]1O (mixture of isomers) [Lewis Y antigen],"printed mammalian glycan array (CFG v5.4), GFP fluorescence",[3],Strong binding was observed to the Lewis B and Lewis Y antigens
